Laboratory results taken from PMC9954146, “Anti-Leukaemic Activity of Rilpivirine Is Mediated by Aurora A Kinase Inhibition” (Cancers, 2023).

Legend:
Assay in all cases: Kinase panel
Type in all cases: biochemical
Details in all cases: read-out: % Residual Activity
[1] = target: PI3 Kinase (p110b/p85a)(m) (Mus musculus, UniProt Q8BTI9)
Procedure, shortened: (§1)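 Cheng–Prusoff conversion of IC50 to Ki; IC50s from radioisotope-based assays at Km(ATP). Kinome-wide rilpivirine profiling.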

[2] = target: PI3 Kinase (p110a/p65a)(h) (Homo sapiens, UniProt P42336)
Procedure, shortened: as §1

TAK1(h) = target: T1, TAK1(h) (Homo sapiens, UniProt O43318)
T1 construct: purchased Eurofins (KinaseProfiler)
Procedure, shortened: as §1

PAK6(h) = target: T2, PAK6(h) (Homo sapiens, UniProt Q9NQU5)
T2 construct: purchased Eurofins (KinaseProfiler)
Procedure, shortened: as §1

CK1δ(h) = target: T3, CK1δ(h) (Homo sapiens, UniProt P48730)
T3 construct: purchased Eurofins (KinaseProfiler)
Procedure, shortened: as §1

ALK2(h) = target: T4, ALK2(h) (Homo sapiens, UniProt Q04771)
T4 construct: purchased Eurofins (KinaseProfiler)
Procedure, shortened: as §1

DYRK1B(h) = target: T5, DYRK1B(h) (Homo sapiens, UniProt Q9Y463)
T5 construct: purchased Eurofins (KinaseProfiler)
Procedure, shortened: as §1

MSK1(h) = target: T6, MSK1(h) (Homo sapiens, UniProt O75582)
T6 construct: purchased Eurofins (KinaseProfiler)
Procedure, shortened: as §1

CLK1(h) = target: T7, CLK1(h) (Homo sapiens, UniProt P49759)
T7 construct: purchased Eurofins (KinaseProfiler)
Procedure, shortened: as §1

EGFR(L861Q)(h) = target: T8, EGFR(L861Q)(h) (Homo sapiens, UniProt P00533, L861Q)
T8 construct: purchased Eurofins (KinaseProfiler)
Procedure, shortened: as §1

Pim-3(h) = target: T9, Pim-3(h) (Homo sapiens, UniProt Q86V86)
T9 construct: purchased Eurofins (KinaseProfiler)
Procedure, shortened: as §1

Met(Y1248D)(h) = target: T10, Met(Y1248D)(h) (Homo sapiens, UniProt P08581, Y1230D)
T10 construct: purchased Eurofins (KinaseProfiler)
Procedure, shortened: as §1

Src(1-530)(h) = target: T11, Src(1-530)(h) (Homo sapiens, UniProt P12931)
T11 construct: purchased Eurofins (KinaseProfiler)
Procedure, shortened: as §1

EGFR(L858R)(h) = target: T12, EGFR(L858R)(h) (Homo sapiens, UniProt P00533, L858R)
T12 construct: purchased Eurofins (KinaseProfiler)
Procedure, shortened: as §1

PDGFRα(V561D)(h) = target: T13, PDGFRα(V561D)(h) (Homo sapiens, UniProt P16234, V561D)
T13 construct: purchased Eurofins (KinaseProfiler)
Procedure, shortened: as §1

MAPK2(m) = target: T14, MAPK2(m) (Mus musculus, UniProt P63085)
T14 construct: purchased Eurofins (KinaseProfiler)
Procedure, shortened: as §1

PIP5K1g(h) = PIP5K1g(h) (Homo sapiens, UniProt O60331)
Procedure, shortened: as §1

Plk1(h) = target: T15, Plk1(h) (Homo sapiens, UniProt P53350)
T15 construct: purchased Eurofins (KinaseProfiler)
Procedure, shortened: as §1

Haspin(h) = target: T16, Haspin(h) (Homo sapiens, UniProt Q8TF76)
T16 construct: purchased Eurofins (KinaseProfiler)
Procedure, shortened: as §1

CDK14/cyclinY(h) = target: T17, CDK14/cyclinY(h) (Homo sapiens, UniProt O94921)
T17 construct: purchased Eurofins (KinaseProfiler)
Procedure, shortened: as §1

PKD2(h) = target: T18, PKD2(h) (Homo sapiens, UniProt Q9BZL6)
T18 construct: purchased Eurofins (KinaseProfiler)
Procedure, shortened: as §1

ErbB4(h) = target: T19, ErbB4(h) (Homo sapiens, UniProt Q15303)
T19 construct: purchased Eurofins (KinaseProfiler)
Procedure, shortened: as §1

PKD3(h) = target: T20, PKD3(h) (Homo sapiens, UniProt O94806)
T20 construct: purchased Eurofins (KinaseProfiler)
Procedure, shortened: as §1

Cdc7/cyclinB1(h) = target: T21, Cdc7/cyclinB1(h) (Homo sapiens, UniProt O00311)
T21 construct: purchased Eurofins (KinaseProfiler)
Procedure, shortened: as §1

EphB4(h) = target: T22, EphB4(h) (Homo sapiens, UniProt P54760)
T22 construct: purchased Eurofins (KinaseProfiler)
Procedure, shortened: as §1

Ret(V804M)(h) = target: T23, Ret(V804M)(h) (Homo sapiens, UniProt P07949, V804M)
T23 construct: purchased Eurofins (KinaseProfiler)
Procedure, shortened: as §1

MRCKα(h) = target: T24, MRCKα(h) (Homo sapiens, UniProt Q5VT25)
T24 construct: purchased Eurofins (KinaseProfiler)
Procedure, shortened: as §1

ARK5(h) = target: T25, ARK5(h) (Homo sapiens, UniProt O60285)
T25 construct: purchased Eurofins (KinaseProfiler)
Procedure, shortened: as §1

CDK2/cyclinE(h) = target: T26, CDK2/cyclinE(h) (Homo sapiens, UniProt P24941)
T26 construct: purchased Eurofins (KinaseProfiler)
Procedure, shortened: as §1

IR(h) = target: T27, IR(h) (Homo sapiens, UniProt P06213)
T27 construct: purchased Eurofins (KinaseProfiler)
Procedure, shortened: as §1

DRAK1(h) = target: T28, DRAK1(h) (Homo sapiens, UniProt Q9UEE5)
T28 construct: purchased Eurofins (KinaseProfiler)
Procedure, shortened: as §1

PKCδ(h) = target: T29, PKCδ(h) (Homo sapiens, UniProt Q05655)
T29 construct: purchased Eurofins (KinaseProfiler)
Procedure, shortened: as §1

CDK7/cyclinH/MAT1(h) = target: T30, CDK7/cyclinH/MAT1(h) (Homo sapiens, UniProt P50613)
T30 construct: purchased Eurofins (KinaseProfiler)
Procedure, shortened: as §1

PDGFRα(h) = target: T31, PDGFRα(h) (Homo sapiens, UniProt P16234)
T31 construct: purchased Eurofins (KinaseProfiler)
Procedure, shortened: as §1

Met(Y1248H)(h) = target: T32, Met(Y1248H)(h) (Homo sapiens, UniProt P08581, Y1230H)
T32 construct: purchased Eurofins (KinaseProfiler)
Procedure, shortened: as §1

TAO1(h) = target: T33, TAO1(h) (Homo sapiens, UniProt Q7L7X3)
T33 construct: purchased Eurofins (KinaseProfiler)
Procedure, shortened: as §1

Flt3(h) = target: T34, Flt3(h) (Homo sapiens, UniProt P36888)
T34 construct: purchased Eurofins (KinaseProfiler)
Procedure, shortened: as §1

MST3(h) = target: T35, MST3(h) (Homo sapiens, UniProt Q9Y6E0)
T35 construct: purchased Eurofins (KinaseProfiler)
Procedure, shortened: as §1

T15 sequence (P53350 whole entry): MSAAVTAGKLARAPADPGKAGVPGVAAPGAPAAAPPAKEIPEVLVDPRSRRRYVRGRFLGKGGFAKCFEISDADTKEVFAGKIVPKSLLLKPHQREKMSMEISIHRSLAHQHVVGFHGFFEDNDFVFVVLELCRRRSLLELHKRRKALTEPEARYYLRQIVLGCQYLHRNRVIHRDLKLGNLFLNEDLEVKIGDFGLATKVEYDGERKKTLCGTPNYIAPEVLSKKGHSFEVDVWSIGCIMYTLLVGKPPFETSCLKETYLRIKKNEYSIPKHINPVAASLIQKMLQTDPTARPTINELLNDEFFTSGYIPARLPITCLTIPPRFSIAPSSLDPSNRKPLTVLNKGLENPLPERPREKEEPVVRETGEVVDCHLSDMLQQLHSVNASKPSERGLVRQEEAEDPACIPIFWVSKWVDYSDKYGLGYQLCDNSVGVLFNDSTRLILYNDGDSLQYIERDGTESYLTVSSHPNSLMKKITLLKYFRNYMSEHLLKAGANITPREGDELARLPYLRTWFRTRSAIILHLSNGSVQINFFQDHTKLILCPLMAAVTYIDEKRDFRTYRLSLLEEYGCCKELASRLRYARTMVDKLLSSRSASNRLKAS
T28 sequence (Q9UEE5 whole entry): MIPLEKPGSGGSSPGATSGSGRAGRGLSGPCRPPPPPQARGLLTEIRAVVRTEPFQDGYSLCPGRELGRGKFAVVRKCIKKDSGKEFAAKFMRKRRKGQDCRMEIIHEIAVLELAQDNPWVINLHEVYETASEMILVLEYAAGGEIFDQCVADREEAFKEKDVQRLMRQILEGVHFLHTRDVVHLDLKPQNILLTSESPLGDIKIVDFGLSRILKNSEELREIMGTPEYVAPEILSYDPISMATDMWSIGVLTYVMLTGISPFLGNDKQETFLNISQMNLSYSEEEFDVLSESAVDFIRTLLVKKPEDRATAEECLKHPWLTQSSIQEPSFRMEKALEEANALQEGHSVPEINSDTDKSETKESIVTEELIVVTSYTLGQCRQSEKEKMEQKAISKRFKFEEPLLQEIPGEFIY
T4 sequence (Q04771 21-509): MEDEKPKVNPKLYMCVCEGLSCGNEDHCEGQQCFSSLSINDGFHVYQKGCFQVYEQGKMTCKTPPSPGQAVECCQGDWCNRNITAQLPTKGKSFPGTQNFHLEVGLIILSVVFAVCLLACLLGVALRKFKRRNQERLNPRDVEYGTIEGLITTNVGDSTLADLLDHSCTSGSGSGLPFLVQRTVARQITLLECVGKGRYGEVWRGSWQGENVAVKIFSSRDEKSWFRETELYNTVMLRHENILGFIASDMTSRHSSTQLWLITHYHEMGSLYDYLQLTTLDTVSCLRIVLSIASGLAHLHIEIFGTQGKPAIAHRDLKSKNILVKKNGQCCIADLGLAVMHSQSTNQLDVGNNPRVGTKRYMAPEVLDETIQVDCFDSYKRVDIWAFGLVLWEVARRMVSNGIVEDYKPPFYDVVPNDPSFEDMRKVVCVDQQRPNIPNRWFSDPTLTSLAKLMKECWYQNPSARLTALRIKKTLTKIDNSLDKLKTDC
T27 sequence (P06213 28-1382): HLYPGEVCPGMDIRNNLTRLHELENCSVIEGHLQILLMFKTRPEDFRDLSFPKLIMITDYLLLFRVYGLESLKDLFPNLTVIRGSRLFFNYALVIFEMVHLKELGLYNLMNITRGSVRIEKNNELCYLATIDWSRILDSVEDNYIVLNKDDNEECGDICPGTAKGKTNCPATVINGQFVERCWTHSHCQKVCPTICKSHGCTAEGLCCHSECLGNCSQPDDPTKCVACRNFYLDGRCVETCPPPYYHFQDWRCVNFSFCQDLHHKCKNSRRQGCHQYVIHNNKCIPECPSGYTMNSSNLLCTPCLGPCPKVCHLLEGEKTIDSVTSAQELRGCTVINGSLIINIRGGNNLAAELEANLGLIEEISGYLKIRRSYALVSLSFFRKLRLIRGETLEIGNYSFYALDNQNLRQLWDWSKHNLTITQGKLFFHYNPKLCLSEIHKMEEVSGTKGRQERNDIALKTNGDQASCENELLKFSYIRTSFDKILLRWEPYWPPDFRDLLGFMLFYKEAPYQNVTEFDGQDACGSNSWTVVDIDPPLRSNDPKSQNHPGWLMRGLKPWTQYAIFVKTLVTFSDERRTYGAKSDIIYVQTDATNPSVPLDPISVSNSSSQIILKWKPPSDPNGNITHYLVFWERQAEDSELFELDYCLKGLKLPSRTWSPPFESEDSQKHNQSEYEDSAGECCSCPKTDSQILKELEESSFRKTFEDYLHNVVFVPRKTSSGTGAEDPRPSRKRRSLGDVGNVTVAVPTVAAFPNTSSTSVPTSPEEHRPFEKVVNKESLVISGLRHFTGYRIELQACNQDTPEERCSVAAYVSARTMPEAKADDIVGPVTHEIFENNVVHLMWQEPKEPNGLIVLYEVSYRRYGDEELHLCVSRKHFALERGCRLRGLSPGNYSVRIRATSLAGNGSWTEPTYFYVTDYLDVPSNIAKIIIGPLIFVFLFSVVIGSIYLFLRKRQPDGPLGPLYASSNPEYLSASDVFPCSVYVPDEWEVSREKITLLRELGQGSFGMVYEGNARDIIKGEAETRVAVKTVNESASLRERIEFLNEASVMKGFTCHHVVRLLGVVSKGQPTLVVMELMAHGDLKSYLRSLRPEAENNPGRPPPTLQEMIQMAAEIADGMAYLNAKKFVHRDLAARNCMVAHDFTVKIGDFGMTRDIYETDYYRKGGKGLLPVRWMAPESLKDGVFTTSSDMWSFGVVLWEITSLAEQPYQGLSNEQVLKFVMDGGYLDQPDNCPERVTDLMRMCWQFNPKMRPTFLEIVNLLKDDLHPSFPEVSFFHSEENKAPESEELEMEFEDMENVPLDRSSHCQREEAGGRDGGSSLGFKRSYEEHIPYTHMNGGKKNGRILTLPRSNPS
T20 sequence (O94806 whole entry): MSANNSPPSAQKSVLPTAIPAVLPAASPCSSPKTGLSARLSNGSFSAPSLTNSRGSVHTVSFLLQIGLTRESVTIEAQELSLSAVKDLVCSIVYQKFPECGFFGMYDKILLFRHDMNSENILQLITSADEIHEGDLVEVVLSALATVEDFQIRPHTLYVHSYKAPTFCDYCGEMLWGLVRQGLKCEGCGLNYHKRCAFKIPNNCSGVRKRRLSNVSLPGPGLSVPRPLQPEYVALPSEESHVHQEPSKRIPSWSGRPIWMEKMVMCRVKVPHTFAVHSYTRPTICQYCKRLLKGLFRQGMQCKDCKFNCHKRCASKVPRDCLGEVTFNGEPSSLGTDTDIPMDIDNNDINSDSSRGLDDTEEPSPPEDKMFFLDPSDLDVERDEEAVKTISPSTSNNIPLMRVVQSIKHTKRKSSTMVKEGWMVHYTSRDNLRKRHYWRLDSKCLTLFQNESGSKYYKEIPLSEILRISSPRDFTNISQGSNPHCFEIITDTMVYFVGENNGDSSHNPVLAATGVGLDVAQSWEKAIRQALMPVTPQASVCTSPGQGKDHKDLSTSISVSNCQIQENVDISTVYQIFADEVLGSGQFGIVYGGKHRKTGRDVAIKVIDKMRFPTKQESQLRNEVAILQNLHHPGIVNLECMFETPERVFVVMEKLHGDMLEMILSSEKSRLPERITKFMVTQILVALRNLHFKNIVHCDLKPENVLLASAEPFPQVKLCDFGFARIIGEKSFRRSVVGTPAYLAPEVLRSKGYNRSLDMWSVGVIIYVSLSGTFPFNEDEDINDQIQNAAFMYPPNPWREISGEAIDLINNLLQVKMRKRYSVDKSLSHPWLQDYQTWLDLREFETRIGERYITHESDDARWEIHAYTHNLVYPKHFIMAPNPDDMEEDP
T16 sequence (Q8TF76 whole entry): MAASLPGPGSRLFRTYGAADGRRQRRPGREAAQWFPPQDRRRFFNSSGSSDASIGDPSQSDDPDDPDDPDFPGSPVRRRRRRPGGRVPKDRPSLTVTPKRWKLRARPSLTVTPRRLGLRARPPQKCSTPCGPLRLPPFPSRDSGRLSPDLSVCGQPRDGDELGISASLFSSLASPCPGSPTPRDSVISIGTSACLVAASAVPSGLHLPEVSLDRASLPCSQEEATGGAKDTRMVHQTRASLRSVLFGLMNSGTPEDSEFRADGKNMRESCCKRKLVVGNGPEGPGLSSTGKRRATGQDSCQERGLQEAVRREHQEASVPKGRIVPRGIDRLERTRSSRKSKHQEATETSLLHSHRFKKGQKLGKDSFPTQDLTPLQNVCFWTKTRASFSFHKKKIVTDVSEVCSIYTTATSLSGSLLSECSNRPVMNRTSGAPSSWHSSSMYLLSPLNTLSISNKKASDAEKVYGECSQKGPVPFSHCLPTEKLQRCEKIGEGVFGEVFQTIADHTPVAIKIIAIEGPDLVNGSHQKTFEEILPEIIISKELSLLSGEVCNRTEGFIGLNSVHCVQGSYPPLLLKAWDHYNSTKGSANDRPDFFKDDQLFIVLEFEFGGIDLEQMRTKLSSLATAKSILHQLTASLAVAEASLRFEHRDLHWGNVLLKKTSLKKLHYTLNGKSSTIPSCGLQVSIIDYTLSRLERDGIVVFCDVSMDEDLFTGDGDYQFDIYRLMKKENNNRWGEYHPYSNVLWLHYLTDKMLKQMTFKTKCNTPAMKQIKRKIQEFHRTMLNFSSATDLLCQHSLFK
T7 sequence (P49759 whole entry): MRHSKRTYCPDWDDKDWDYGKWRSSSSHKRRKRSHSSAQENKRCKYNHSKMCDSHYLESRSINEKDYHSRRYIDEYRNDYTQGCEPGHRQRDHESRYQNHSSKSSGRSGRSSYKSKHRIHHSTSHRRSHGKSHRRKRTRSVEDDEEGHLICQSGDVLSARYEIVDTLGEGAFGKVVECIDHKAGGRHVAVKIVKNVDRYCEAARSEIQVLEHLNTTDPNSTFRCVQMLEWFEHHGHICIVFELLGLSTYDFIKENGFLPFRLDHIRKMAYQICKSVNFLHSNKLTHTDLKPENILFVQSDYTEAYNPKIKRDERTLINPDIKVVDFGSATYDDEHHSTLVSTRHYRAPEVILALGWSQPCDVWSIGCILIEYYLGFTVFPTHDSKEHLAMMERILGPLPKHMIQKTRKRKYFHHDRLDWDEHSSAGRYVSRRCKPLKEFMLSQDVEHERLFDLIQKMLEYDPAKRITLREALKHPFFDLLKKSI

Cc1cc(/C=C/C#N)cc(C)c1Nc1ccnc(Nc2ccc(C#N)cc2)n1 [rilpivirine, (E)-4-((4-((4-(2-cyanoethenyl)-2,6-dimethylphenyl)amino)pyrimidin-2-yl)amino)benzonitrile]
remaining activity at 1 µM [1]: 98% | remaining activity at 1 µM [2]: 93% | remaining activity at 1 µM (TAK1(h)): 105% | remaining activity at 1 µM (PAK6(h)): 117% | remaining activity at 1 µM (CK1δ(h)): 99% | remaining activity at 1 µM (ALK2(h)): 91% | remaining activity at 1 µM (DYRK1B(h)): 72% | remaining activity at 1 µM (MSK1(h)): 97% | remaining activity at 1 µM (CLK1(h)): 48% | remaining activity at 1 µM (EGFR(L861Q)(h)): 35% | remaining activity at 1 µM (Pim-3(h)): 89% | remaining activity at 1 µM (Met(Y1248D)(h)): 100% | remaining activity at 1 µM (Src(1-530)(h)): 31% | remaining activity at 1 µM (EGFR(L858R)(h)): 90% | remaining activity at 1 µM (PDGFRα(V561D)(h)): 86% | remaining activity at 1 µM (MAPK2(m)): 92% | remaining activity at 1 µM (PIP5K1g(h)): 76% | remaining activity at 1 µM (Plk1(h)): 107% | remaining activity at 1 µM (Haspin(h)): 61% | remaining activity at 1 µM (CDK14/cyclinY(h)): 91% | remaining activity at 1 µM (PKD2(h)): 115% | remaining activity at 1 µM (ErbB4(h)): 88% | remaining activity at 1 µM (PKD3(h)): 76% | remaining activity at 1 µM (Cdc7/cyclinB1(h)): 93% | remaining activity at 1 µM (EphB4(h)): 86% | remaining activity at 1 µM (Ret(V804M)(h)): 92% | remaining activity at 1 µM (MRCKα(h)): 86% | remaining activity at 1 µM (ARK5(h)): 82% | remaining activity at 1 µM (CDK2/cyclinE(h)): 92% | remaining activity at 1 µM (IR(h)): 111% | remaining activity at 1 µM (DRAK1(h)): 76% | remaining activity at 1 µM (PKCδ(h)): 72% | remaining activity at 1 µM (CDK7/cyclinH/MAT1(h)): 78% | remaining activity at 1 µM (PDGFRα(h)): 96% | remaining activity at 1 µM (Met(Y1248H)(h)): 98% | remaining activity at 1 µM (TAO1(h)): 41% | remaining activity at 1 µM (Flt3(h)): 123% | remaining activity at 1 µM (MST3(h)): 93%
